Assay results: patent publication EP0290169A2, “Diamineplatinum complexes with phosphonocarboxylate and substituted phosphonocarboxylate ligands as antitumor agents” (ENGELHARD CORPORATION, priority 1987, dated 1988)

test system: L1210 leukemia; assay: L1210 screening (L1210 leukemia tumor model), increase in life span; format: in vivo, Female CDF1 mice; conditions: dose 10.00 mg/kg on day 1, vehicle water
Experimental: Female CDF1 mice (16-22 g) are injected with a suspension of 1 x 10^6 tumor cells in 0.5 mL of 0.15 M saline on day zero. On day one, the mice receive the test compound in 0.5 mL of the chosen medium (usually water). Six mice were used for each test dose, with six doses normally being run. Normal controls (six mice) receive tumor on day zero and 0.5 mL of the test medium on day one. Positive controls (six mice) receive tumor on day zero and 8 mg/kg cisplatin in 0.5 mL of 0.15 M saline on day one. All compound doses are adjusted for the actual average weight of the mice involved. Testing is terminated at three times the normal control mean life span. The percent increase in lifespan (ILS) is calculated as follows: %ILS = [(mean life span (test)/mean life span(control)-I]x100 A 25% ILS or greater indicates activity. The maximum possible ILS is 200%. The positive control must have an ILS of S 25% for the test to be considered valid.
The tumor line is maintained by transfer of 5 x 10^4- cells in 0.1 mL saline every seven days. DBA/2 (18-22 g) mice are employed for tumor transfers

| Compound | %ILS [%] |
| --- | --- |
| N.N.O=C1CP(=O)([O-])[O][Pt][O]1.[Na+] [Ex 21, Na(cis-Pt(NH3)2(phosphonoacetate)]] | -10 |
| CCC1C(=O)[O][Pt][O]P1(=O)[O-].N.N.[Na+] (racemic) [Ex 14, Na[cis-Pt(NH3)2(2-phosphonobutyrate)]] | -10 |

same assay, conditions: dose 10.00 mg/kg on day 1, vehicle water; survivors

| Compound | Surv. |
| --- | --- |
| N.N.O=C1CP(=O)([O-])[O][Pt][O]1.[Na+] [Ex 21, Na(cis-Pt(NH3)2(phosphonoacetate)]] | 0/ 6 |
| CCC1C(=O)[O][Pt][O]P1(=O)[O-].N.N.[Na+] (racemic) [Ex 14, Na[cis-Pt(NH3)2(2-phosphonobutyrate)]] | 0/ 6 |

same assay, conditions: dose 20.00 mg/kg on day 1, vehicle water

| Compound | %ILS [%] |
| --- | --- |
| N.N.O=C1CP(=O)([O-])[O][Pt][O]1.[Na+] [Ex 21, Na(cis-Pt(NH3)2(phosphonoacetate)]] | -5 |
| CCC1C(=O)[O][Pt][O]P1(=O)[O-].N.N.[Na+] (racemic) [Ex 14, Na[cis-Pt(NH3)2(2-phosphonobutyrate)]] | -8 |

same assay, conditions: dose 20.00 mg/kg on day 1, vehicle water; survivors

| Compound | Surv. |
| --- | --- |
| N.N.O=C1CP(=O)([O-])[O][Pt][O]1.[Na+] [Ex 21, Na(cis-Pt(NH3)2(phosphonoacetate)]] | 0/ 6 |
| CCC1C(=O)[O][Pt][O]P1(=O)[O-].N.N.[Na+] (racemic) [Ex 14, Na[cis-Pt(NH3)2(2-phosphonobutyrate)]] | 0/ 6 |

same assay, conditions: dose 40.00 mg/kg on day 1, vehicle water

| Compound | %ILS [%] |
| --- | --- |
| N.N.O=C1CP(=O)([O-])[O][Pt][O]1.[Na+] [Ex 21, Na(cis-Pt(NH3)2(phosphonoacetate)]] | 13 |
| CCC1C(=O)[O][Pt][O]P1(=O)[O-].N.N.[Na+] (racemic) [Ex 14, Na[cis-Pt(NH3)2(2-phosphonobutyrate)]] | -15 |

same assay, conditions: dose 40.00 mg/kg on day 1, vehicle water; survivors

| Compound | Surv. |
| --- | --- |
| N.N.O=C1CP(=O)([O-])[O][Pt][O]1.[Na+] [Ex 21, Na(cis-Pt(NH3)2(phosphonoacetate)]] | 0/ 6 |
| CCC1C(=O)[O][Pt][O]P1(=O)[O-].N.N.[Na+] (racemic) [Ex 14, Na[cis-Pt(NH3)2(2-phosphonobutyrate)]] | 0/ 6 |

same assay, conditions: dose 80.00 mg/kg on day 1, vehicle water

| Compound | %ILS [%] |
| --- | --- |
| N.N.O=C1CP(=O)([O-])[O][Pt][O]1.[Na+] [Ex 21, Na(cis-Pt(NH3)2(phosphonoacetate)]] | 12 |
| CCC1C(=O)[O][Pt][O]P1(=O)[O-].N.N.[Na+] (racemic) [Ex 14, Na[cis-Pt(NH3)2(2-phosphonobutyrate)]] | -5 |

same assay, conditions: dose 80.00 mg/kg on day 1, vehicle water; survivors

| Compound | Surv. |
| --- | --- |
| N.N.O=C1CP(=O)([O-])[O][Pt][O]1.[Na+] [Ex 21, Na(cis-Pt(NH3)2(phosphonoacetate)]] | 0/ 6 |
| CCC1C(=O)[O][Pt][O]P1(=O)[O-].N.N.[Na+] (racemic) [Ex 14, Na[cis-Pt(NH3)2(2-phosphonobutyrate)]] | 0/ 6 |

same assay, conditions: dose 160.00 mg/kg on day 1, vehicle water

| Compound | %ILS [%] |
| --- | --- |
| N.N.O=C1CP(=O)([O-])[O][Pt][O]1.[Na+] [Ex 21, Na(cis-Pt(NH3)2(phosphonoacetate)]] | 10 |
| CCC1C(=O)[O][Pt][O]P1(=O)[O-].N.N.[Na+] (racemic) [Ex 14, Na[cis-Pt(NH3)2(2-phosphonobutyrate)]] | -67 |

same assay, conditions: dose 160.00 mg/kg on day 1, vehicle water; survivors

| Compound | Surv. |
| --- | --- |
| N.N.O=C1CP(=O)([O-])[O][Pt][O]1.[Na+] [Ex 21, Na(cis-Pt(NH3)2(phosphonoacetate)]] | 0/ 6 |
| CCC1C(=O)[O][Pt][O]P1(=O)[O-].N.N.[Na+] (racemic) [Ex 14, Na[cis-Pt(NH3)2(2-phosphonobutyrate)]] | 0/ 6 |

same assay, conditions: dose 320.00 mg/kg on day 1, vehicle water

| Compound | %ILS [%] |
| --- | --- |
| N.N.O=C1CP(=O)([O-])[O][Pt][O]1.[Na+] [Ex 21, Na(cis-Pt(NH3)2(phosphonoacetate)]] | -80 |
| CCC1C(=O)[O][Pt][O]P1(=O)[O-].N.N.[Na+] (racemic) [Ex 14, Na[cis-Pt(NH3)2(2-phosphonobutyrate)]] | -80 |

same assay, conditions: dose 320.00 mg/kg on day 1, vehicle water; survivors

| Compound | Surv. |
| --- | --- |
| N.N.O=C1CP(=O)([O-])[O][Pt][O]1.[Na+] [Ex 21, Na(cis-Pt(NH3)2(phosphonoacetate)]] | 0/ 6 |
| CCC1C(=O)[O][Pt][O]P1(=O)[O-].N.N.[Na+] (racemic) [Ex 14, Na[cis-Pt(NH3)2(2-phosphonobutyrate)]] | 0/ 6 |

test system: Sarcoma 180 ascites; assay: S180a screening (Sarcoma 180 ascites tumor model), increase in life span; format: in vivo, CFW mice; conditions: dose 5.00 mg/kg on day 1, vehicle water
Experimental: CFW mice, averaging 20 g, are innoculated on day zero with 0.2 mL of a freshly prepared saline suspension (0.15 M NaCI) containing 1 × 10^7 tumor cells/mL, or a total of 2 x 10^6 cells. On day I, the mice are injected with the test compound in the selected medium (usually water). Six mice are used per test dose, with six doses normally being run.
Also, on day one, two types of controls (6 mice/set are employed: (1) Normal (1 set): 0.5 mL of the solvent medium used for the test compound, and (2) Positive control (1 set): cis-[Pt(NH3)2Cl2] in saline at 8 mg/kg.
The effectiveness of a compound is measured in terms of the increase in life span (ILS) of the test animals relative to the controls calculated from the day of tumor inoculation (day zero). The day of evaluation is arbitrarily taken as that day corresponding to twice the mean life-span of the normal controls. This sets a practical upper limit of 100% on the ILS attainable. For calculation purposes, survivors on the day of evaluation are considered to have died on that day. The % ILS is formulated as: [formula]
ILS values above 50% represent activity. The positive controls must have an ILS of ≧ 50% for the test to be valid.

| Compound | %ILS [%] |
| --- | --- |
| NCCN.O=C1CP(=O)(O)[O][Pt][O]1 [Ex 16, H[Pt(en)(phosphonoacetate)]] | -2 |

same assay, conditions: dose 5.00 mg/kg on day 1, vehicle water, pH7

| Compound | %ILS [%] |
| --- | --- |
| NCCN.O=C1CP(=O)(O)[O][Pt][O]1 [Ex 16, H[Pt(en)(phosphonoacetate)]] | -3 |

same assay, conditions: dose 5.00 mg/kg on day 1, vehicle water, pH7; survivors on day of evaluation

| Compound | Surv. |
| --- | --- |
| NCCN.O=C1CP(=O)(O)[O][Pt][O]1 [Ex 16, H[Pt(en)(phosphonoacetate)]] | 0/ 6 |

same assay, conditions: dose 5.00 mg/kg on day 1, vehicle water; survivors on day of evaluation

| Compound | Surv. |
| --- | --- |
| NCCN.O=C1CP(=O)(O)[O][Pt][O]1 [Ex 16, H[Pt(en)(phosphonoacetate)]] | 0/ 6 |

same assay, conditions: dose 10.00 mg/kg on day 1, vehicle water

| Compound | %ILS [%] |
| --- | --- |
| NCCN.O=C1CP(=O)(O)[O][Pt][O]1 [Ex 16, H[Pt(en)(phosphonoacetate)]] | 3 |

same assay, conditions: dose 10.00 mg/kg on day 1, vehicle water, pH7

| Compound | %ILS [%] |
| --- | --- |
| NCCN.O=C1CP(=O)(O)[O][Pt][O]1 [Ex 16, H[Pt(en)(phosphonoacetate)]] | 2 |

same assay, conditions: dose 10.00 mg/kg on day 1, vehicle water, pH7; survivors on day of evaluation

| Compound | Surv. |
| --- | --- |
| NCCN.O=C1CP(=O)(O)[O][Pt][O]1 [Ex 16, H[Pt(en)(phosphonoacetate)]] | 0/ 6 |

same assay, conditions: dose 10.00 mg/kg on day 1, vehicle water; survivors on day of evaluation

| Compound | Surv. |
| --- | --- |
| NCCN.O=C1CP(=O)(O)[O][Pt][O]1 [Ex 16, H[Pt(en)(phosphonoacetate)]] | 0/ 6 |

same assay, conditions: dose 20.00 mg/kg on day 1, vehicle water

| Compound | %ILS [%] |
| --- | --- |
| NCCN.O=C1CP(=O)(O)[O][Pt][O]1 [Ex 16, H[Pt(en)(phosphonoacetate)]] | 29 |

same assay, conditions: dose 20.00 mg/kg on day 1, vehicle water, pH7

| Compound | %ILS [%] |
| --- | --- |
| NCCN.O=C1CP(=O)(O)[O][Pt][O]1 [Ex 16, H[Pt(en)(phosphonoacetate)]] | 14 |

same assay, conditions: dose 20.00 mg/kg on day 1, vehicle water, pH7; survivors on day of evaluation

| Compound | Surv. |
| --- | --- |
| NCCN.O=C1CP(=O)(O)[O][Pt][O]1 [Ex 16, H[Pt(en)(phosphonoacetate)]] | 0/ 6 |

same assay, conditions: dose 20.00 mg/kg on day 1, vehicle water; survivors on day of evaluation

| Compound | Surv. |
| --- | --- |
| NCCN.O=C1CP(=O)(O)[O][Pt][O]1 [Ex 16, H[Pt(en)(phosphonoacetate)]] | 1/ 6 |

same assay, conditions: dose 40.00 mg/kg on day 1, vehicle water

| Compound | %ILS [%] |
| --- | --- |
| NCCN.O=C1CP(=O)(O)[O][Pt][O]1 [Ex 16, H[Pt(en)(phosphonoacetate)]] | 64 |

same assay, conditions: dose 40.00 mg/kg on day 1, vehicle water, pH7

| Compound | %ILS [%] |
| --- | --- |
| NCCN.O=C1CP(=O)(O)[O][Pt][O]1 [Ex 16, H[Pt(en)(phosphonoacetate)]] | 72 |

same assay, conditions: dose 40.00 mg/kg on day 1, vehicle water, pH7; survivors on day of evaluation

| Compound | Surv. |
| --- | --- |
| NCCN.O=C1CP(=O)(O)[O][Pt][O]1 [Ex 16, H[Pt(en)(phosphonoacetate)]] | 2/ 6 |

same assay, conditions: dose 40.00 mg/kg on day 1, vehicle water; survivors on day of evaluation

| Compound | Surv. |
| --- | --- |
| NCCN.O=C1CP(=O)(O)[O][Pt][O]1 [Ex 16, H[Pt(en)(phosphonoacetate)]] | 3/ 6 |

same assay, conditions: dose 80.00 mg/kg on day 1, vehicle water

| Compound | %ILS [%] |
| --- | --- |
| NCCN.O=C1CP(=O)(O)[O][Pt][O]1 [Ex 16, H[Pt(en)(phosphonoacetate)]] | 84 |

same assay, conditions: dose 80.00 mg/kg on day 1, vehicle water, pH7

| Compound | %ILS [%] |
| --- | --- |
| NCCN.O=C1CP(=O)(O)[O][Pt][O]1 [Ex 16, H[Pt(en)(phosphonoacetate)]] | 93 |

same assay, conditions: dose 80.00 mg/kg on day 1, vehicle water, pH7; survivors on day of evaluation

| Compound | Surv. |
| --- | --- |
| NCCN.O=C1CP(=O)(O)[O][Pt][O]1 [Ex 16, H[Pt(en)(phosphonoacetate)]] | 4/ 6 |

same assay, conditions: dose 80.00 mg/kg on day 1, vehicle water; survivors on day of evaluation

| Compound | Surv. |
| --- | --- |
| NCCN.O=C1CP(=O)(O)[O][Pt][O]1 [Ex 16, H[Pt(en)(phosphonoacetate)]] | 4/ 6 |

same assay, conditions: dose 160.00 mg/kg on day 1, vehicle water

| Compound | %ILS [%] |
| --- | --- |
| NCCN.O=C1CP(=O)(O)[O][Pt][O]1 [Ex 16, H[Pt(en)(phosphonoacetate)]] | 85 |

same assay, conditions: dose 160.00 mg/kg on day 1, vehicle water, pH7

| Compound | %ILS [%] |
| --- | --- |
| NCCN.O=C1CP(=O)(O)[O][Pt][O]1 [Ex 16, H[Pt(en)(phosphonoacetate)]] | -32 |

same assay, conditions: dose 160.00 mg/kg on day 1, vehicle water, pH7; survivors on day of evaluation

| Compound | Surv. |
| --- | --- |
| NCCN.O=C1CP(=O)(O)[O][Pt][O]1 [Ex 16, H[Pt(en)(phosphonoacetate)]] | 1/ 6 |

same assay, conditions: dose 160.00 mg/kg on day 1, vehicle water; survivors on day of evaluation

| Compound | Surv. |
| --- | --- |
| NCCN.O=C1CP(=O)(O)[O][Pt][O]1 [Ex 16, H[Pt(en)(phosphonoacetate)]] | 3/ 6 |
